# Source: patent publication US10813920B2, “Drug for treating corneal endothelium by promoting cell proliferation or inhibiting cell damage” (THE DOSHISHA, priority 2013, dated 2020)
# Assays:
# [1] = cited from earlier work
# [2] = system: human corneal endothelial cells; experiment: UV-induced cell death, live cell count; assay type: cell-based; conditions: UV 100 J/m^2; 10 μM; 12 hours after UV irradiation; vs UV only
# Method: In order to study the effect of a p38 MAP kinase signal inhibition on cell death, cultured human corneal endothelial cells were stimulated with ultraviolet rays (UV) of 100 J/m^2 to induce cell death to study the effect of SB203580 (used at 10 μM). The number of cells was counted for the study.
# [3] = system: human corneal endothelial cells; experiment: IL-6 production by RT-PCR and ELISA; assay type: cell-based; conditions: 10 μM, cultured for 20 days
# Method: *PCR: PCR was carried out on each laminin chain and integrin chain by RT-PCR (reverse transcription polymerase chain reaction). A primer was purchased from the oligonucleotide synthesis company INVITROGEN and then desalinized for use. RNEasy Mini Kit (QIAGEN, catalog number: 74106) was used for extracting the entire RNA from cells. The Descemet's membrane including corneal endothelial cells were peeled off from a cornea for research purchased from the Seattle Eye Bank and the corneal endothelial cells were mechanically peeled off with the basal membrane for use in RNA extraction from the corneal endothelial cells. […]
# Electrophoresis is applied to an amplified DNA fragment with 1.5% agarose gel (Nacalai Tesque, catalog number: 01149-76) and the fragment was detected by staining with ethidium bromide (Nacalai Tesque, catalog number: 14603-51).
# *The amount of IL-6 expression of human corneal endothelial cells was quantified by RT-PCR by the following method. […] The reaction was stopped with 1M sulfuric acid to measure the absorbance at 450 nm with a plate reader. […] The amount of IL-6 protein in a culture supernatant collected after 7 days was quantified in accordance with the manual of DuoSetELISA human IL-6 (R & D Cat # DY206). […]
compound,measurement,setting,value
"C[S+]([O-])c1ccc(-c2nc(-c3ccncc3)c(-c3ccc(F)cc3)[nH]2)cc1 (centres unmarked) [SB203580, 4-(4-fluorophenyl)-2-(4-methylsulfinylphenyl)-5-(4-pyridyl)-1H-imidazole]",solubility in methanol,[1]; methanol,soluble
same,solubility in water (pharmacopoeia class),[1]; water,difficult to dissolve (100 mL or greater and less than 1000 mL)
same,number of live cells after UV irradiation (percentage to control),[2],significantly increases
same,IL-6 production (PCR),[3]; RT-PCR,decreases relative to the control
same,IL-6 production (ELISA),[3]; supernatant collected after 7 days,decreases relative to the control
